One assay deals with corn. Put plainly: Drought resistance in seed-coated corn. It is filed as in vivo. The settings on record: for Drought tolerance activity in corn, result in words: corn seed treatment; for % Change Dry Weight / % Change Fresh Weight: vs mock. The method, then:
The effectiveness of peptide treatment in reducing the effects of drought stress was assessed in corn using a seed treatment strategy. This strategy largely mirrors example 2, except that the seeds were coated with a peptide formulation rather than a foliar spray application.
Seeds were first sieved using mesh screens to a uniform size (21-23/64 inches). The seeds were then coated with a mixture of peptide, Unicoat™ seed coat polymer, and a minimal volume of water in a Hege 11 Liquid Seed Treater (Wintersteiger) according to manufacturer recommendations. Seeds were coated with one of the following: (i) 0.12 μg peptide/seed, (ii) […], or (iii) a ‘mock’ treatment that included no peptide. The amount of peptide per seed assumes complete transfer of the peptide to seed surfaces in the seed coating chamber. Losses during coating were not considered.
(§1) 3.5 inch pots were filled (approximately 0.2 L per pot) with Sunshine #1 mix (SunGro Horticulture), fertilized with 14-14-14 N,P,K Osmocote (Everris), and mixed for 20 minutes using a soil mixer M-5. Seeds were planted at a depth of 0.5 inch for germination. The pots were immediately irrigated by submergence then drained after about an hour. For each treatment group, 24 replicate seeds were planted. Plants were grown in a greenhouse under 16 hour light days at ˜75° F. and 8 hour dark nights at ˜65° F. Prior to drought conditions, the plants were well-watered.
Three days after planting, the plants were randomized using a complete block design and subjected to a cyclic drought stress. Drought stress was imposed by withholding water for 2-3 days until the majority of plants were under medium to severe water stress. The severity of the stress was determined by the weight of the pot and visual determination of leaf curling. Once drought stress was attained, the pots were watered to full saturation. Full Saturation (100% pot capacity) is defined as the weight of the pot filled with water-saturated soil minus the weight of the filled pot prior to adding water. Drought stress was imposed for a total of 18 days.
At the end of the experiment (18 days after initiation of drought stress), the plant was then harvested for fresh and dry weights. Individual plants were cut near the soil surface and weighed immediately (fresh weight). The plants were then placed into labeled brown paper bags and dried in a 70° C. oven for 72 hours. A dry weight was then obtained.
The following calculation was performed on the collected data: Fresh weight at harvest and dry weight at harvest for the plants grown from peptide-treated seeds were expressed as a % change relative to the ‘mock’ treated plants.

Another assay relates to soy. The assay is described as follows: Drought resistance in seed-treated soy. The note with it: for % Change Dry Weight / % Change Fresh Weight: vs mock; for Result in the seed treated drought study for soy, in words: soy seed treatment. Type of assay: in vivo. The method, then: The effectiveness of peptide treatment in reducing drought stress was assessed in soy using a seed treatment strategy. This strategy largely mirrors examples 3 and 4.
Seeds were first sieved using mesh screens to a uniform size (14-17 mesh). The seeds were then coated with a mixture of peptide and Unicoat™ seed coat polymer in a Hege 11 Liquid Seed Treater (Wintersteiger) according to manufacturer recommendations. […]
as §1
Seven days after germination the heights of the plants were measured. This was determined as the distance between the soil surface and the shoot apical meristems (buds). The plants were randomized using a complete block design and subjected to a cyclic drought stress. Drought stress was imposed by withholding water for 3-4 days until the majority of plants were under medium to severe water stress. The severity of the stress was determined by the weight of the pot and visual determination of loss of turgor in the leaves (drooping). Once drought stress was attained, the pots were watered to full saturation. Full Saturation (100% pot capacity) is defined as the weight of the pot filled with water-saturated soil minus the weight of the filled pot prior to adding water. Drought stress was imposed for a total of 18 days.
At the end of the experiment (18 days after initiation of drought stress), the plant above the soil surface was then harvested for fresh and dry weights. Individual plants were cut near the soil surface and weighed immediately (fresh weight). The plants were then placed into labeled brown paper bags and dried in a 70° C. oven for 72 hours. A dry weight was then obtained. The following calculation was performed on the collected data: Fresh weight at harvest, and dry weight at harvest for the peptide-treated plants were expressed as a % change relative to the ‘mock’ treated plants.

Setting [1] is: corn seed treatment 0.12 μg/seed.
Setting [2] is: corn seed treatment 1.05 μg/seed.

Marks after values point to notes of the source that are not given here.

As for “AGQTSGLSPLEQLLKIFADITQSLFG (P13-23 peptide) [Peptide P13-23]”, the “Drought tolerance activity in corn, result in words” value (shortened to “Drought tolerance activity in corn”) in the assay with corn was “affords activity”. The “% Change Dry Weight” value in the assay with corn (setting [1]) is on record as 0.94%; in the assay with corn (setting [2]) it was 2.16%; in the assay with soy (soy seed treatment 0.1 μg/seed) it was 6.43%. Further, the figures for the “% Change Fresh Weight” value in the assay on corn (setting [1]), in the assay on corn (setting [2]) and in the assay on soy (soy seed treatment 0.1 μg/seed) were 4.89** %, 5.54** % and 5.08%, respectively.
As to “AGQTSGMSPLEQLMKIFADITQSLFGDQDG (P13-40 peptide) [Peptide P13-40]”, the “% Change Dry Weight” value is recorded as 0.76% in the assay with corn (setting [2]) and 10.27** % in the assay with soy (soy seed treatment 0.1 μg/seed). For the same sequence, the “% Change Fresh Weight” value in the assay on corn (setting [2]) was 5.86* %; with soy (soy seed treatment 0.1 μg/seed) it was 12.53** %. Further, the “Result in the seed treated drought study for soy, in words” value (“Result in the seed treated drought study” below) in the assay with soy is “significant results”.
Take “AGQTSGMSPMEELMKIFADITQSLFGDQDG (P13-45 peptide) [Peptide P13-45]”: in the assay with corn (setting [1]), the “% Change Dry Weight” value is 6.05* % and the “% Change Fresh Weight” value is reported as 8.54** %. For the same sequence, in the assay on soy (soy seed treatment 0.9 μg/seed), the “% Change Dry Weight” value is 3.17% and the “% Change Fresh Weight” value was determined as 3.6%.
On to “AGQTSGMSPMEQLLKIFADITQSLFGDQDG (P13-39 peptide) [Peptide P13-39]”, for which the results for the “% Change Dry Weight” value with corn (setting [2]) and with soy (soy seed treatment 0.1 μg/seed) were 3.10% and 3.26%, respectively. Further, the “% Change Fresh Weight” value in the assay on corn (setting [2]) was 5.09** %; in the assay with soy (soy seed treatment 0.1 μg/seed), 3.22%.
In the case of “AGQTSGMSPMEQLMEIFADITQSLFGDQDGK (P13-22 peptide) [Peptide P13-22]”, in the assay with corn (setting [2]), the “% Change Dry Weight” value came to 1.66% and the “% Change Fresh Weight” value is 3.41%. In the assay with soy (soy seed treatment 0.1 μg/seed), the “% Change Dry Weight” value is recorded as 4.36% and the “% Change Fresh Weight” value is reported as 4.91%.
For “AGQTSGMSPMEQLMEIFADITQSLFGDQDGR (P13-20 peptide) [Peptide P13-20]”, the “Drought tolerance activity in corn” value with corn is “affords activity”. Moreover, the “% Change Dry Weight” value in the assay on corn (setting [2]) is listed as 3.23%; in the assay with soy (soy seed treatment 0.1 μg/seed), −5.02%. Further, the “% Change Fresh Weight” value with corn (setting [2]) is 6.87** %; in the assay on soy (soy seed treatment 0.1 μg/seed), −5.86** %.
Regarding “AGQTSGMSPMEQLMKIFADITESLFGDQDG (P13-43 peptide) [Peptide P13-43]”, the “% Change Dry Weight” value with corn (setting [1]) is −0.75%; with corn (setting [2]) it was 6.73** %; in the assay with soy (soy seed treatment 0.1 μg/seed), 2.37%. Moreover, the results for the “% Change Fresh Weight” value with corn (setting [1]), with corn (setting [2]) and in the assay on soy (soy seed treatment 0.1 μg/seed) were 6.2* %, 5.04% and 1.96%, respectively.
Regarding “AGQTSGMSPMEQLMKIFADITQSLFGDEDG (P13-44 peptide) [Peptide P13-44]”, the “% Change Dry Weight” value in the assay on corn (setting [1]) is 2.73%; with corn (setting [2]), 3.44%; in the assay with soy (soy seed treatment 0.1 μg/seed), 10.93** %. Further, the “% Change Fresh Weight” value with corn (setting [1]) was 7.76** %; in the assay with corn (setting [2]) it was 9.15** %; in the assay on soy (soy seed treatment 0.1 μg/seed), 10.54** %. Also, the “Result in the seed treated drought study” value in the assay on soy is recorded as “significant results”.
For “AGQTSGMSPMEQLMKIFADITQSLFGDQ (P13-17 peptide) [Peptide P13-17]”, the “% Change Dry Weight” value in the assay with corn (setting [2]) is given as 1.09%; with soy (soy seed treatment 0.1 μg/seed) it was 9.48** %. The figures for the “% Change Fresh Weight” value with corn (setting [2]) and in the assay with soy (soy seed treatment 0.1 μg/seed) were 1.51% and 8.02* %, respectively. Besides, the “Result in the seed treated drought study” value in the assay with soy is on record as “significant results”.
“AGQTSGMSPMEQLMKLFADLTQSLFGDQDG (P13-30 peptide) [Peptide P13-30]”: the “Drought tolerance activity in corn” value in the assay on corn was “positive”. In addition, the entries for the “% Change Dry Weight” value in the assay with corn (setting [1]), in the assay with corn (setting [2]) and with soy (soy seed treatment 0.9 μg/seed) were 3.01%, 2.73% and 6.17%, respectively. Moreover, the results for the “% Change Fresh Weight” value in the assay with corn (setting [1]), in the assay on corn (setting [2]) and with soy (soy seed treatment 0.9 μg/seed) were 6.19* %, 8.68** % and 9.41* %, respectively. In addition, in the assay with soy, the “Result in the seed treated drought study” value is listed as “significant results”.
As to “LEELEELLEIFEEIEEELF (P13-35 peptide) [Peptide P13-35]”, in the assay with corn, the “Drought tolerance activity in corn” value was “preservation of activity”. Besides, in the assay with corn (setting [1]), the “% Change Dry Weight” value is 5.68** % and the “% Change Fresh Weight” value is reported as 2.45%. For the same sequence, in the assay with soy (soy seed treatment 0.1 μg/seed), the “% Change Dry Weight” value was determined as 2.56% and the “% Change Fresh Weight” value is 1.55%.
As for “MEEMEQLMKIFEEIEQELFEEEE (P13-37 peptide) [Peptide P13-37]”, the “Drought tolerance activity in corn” value in the assay with corn is reported as “preservation of activity”. In the assay with corn (setting [2]), the “% Change Dry Weight” value is given as 5.53** % and the “% Change Fresh Weight” value was 7.67** %. In the assay on soy (soy seed treatment 0.9 μg/seed), the “% Change Dry Weight” value came to 0.48% and the “% Change Fresh Weight” value is recorded as 0.58%.
Turning to “SEEMSPMEQLMKIFADITQSLFEE (P13-36 peptide) [Peptide P13-36]”, the “Drought tolerance activity in corn” value with corn is given as “supported corn drought tolerance”. Besides, the “% Change Dry Weight” value in the assay on corn (setting [1]) is reported as 5.93** %; in the assay on corn (setting [2]), 7.95** %; in the assay with soy (soy seed treatment 0.9 μg/seed), −4.78%. Moreover, the “% Change Fresh Weight” value with corn (setting [1]) was 10.60** %; with corn (setting [2]), 12.38** %; in the assay on soy (soy seed treatment 0.9 μg/seed), 1.46%.
For “SEQEEEMEEMEQLMEIFEEIEQELFE (P13-28 peptide) [Peptide P13-28]”, in the assay on corn, the “Drought tolerance activity in corn” value is “preservation of activity”. The “% Change Dry Weight” value is 8.52** % with corn (setting [1]), 6.04** % in the assay on corn (setting [2]) and 10.35** % in the assay on soy (soy seed treatment 0.9 μg/seed). For the same sequence, the “% Change Fresh Weight” value in the assay with corn (setting [1]) is given as 9.99** %; in the assay on corn (setting [2]) it was 8.18** %; with soy (soy seed treatment 0.9 μg/seed), 14.35** %. For the same sequence, the “Result in the seed treated drought study” value in the assay with soy is “significant results”.
In the case of “SQEEEMEPMEQLMEIFEEIEQELFG (P13-26 peptide) [Peptide P13-26]”, the “Drought tolerance activity in corn” value in the assay with corn is listed as “preservation of activity”. For the same sequence, the “% Change Dry Weight” value is recorded as 4.74** % with corn (setting [1]), 5.92** % in the assay with corn (setting [2]) and 3.40% in the assay on soy (soy seed treatment 0.1 μg/seed). Moreover, the “% Change Fresh Weight” value in the assay on corn (setting [1]) is 3.77* %; with corn (setting [2]), 4.23* %; in the assay with soy (soy seed treatment 0.1 μg/seed), 2.04%.
Turning to “SQTSGMSPMEQLMEIFADITQSLF (P13-25 peptide) [Peptide P13-25]”, in the assay with corn (setting [2]), the “% Change Dry Weight” value amounted to 3.01% and the “% Change Fresh Weight” value turned out to be 2.63%.

For the origin of these results see patent US20180362993A1, “ELICITOR-DERIVED PEPTIDES AND USE THEREOF” (Plant Health Care, Inc., priority 2017, published 2018).
